{"source": "ChEMBL document CHEMBL3098100", "about": "“Synthesis, characterization and anticancer screening of some novel piperonyl-tetrazole derivatives” (2014)", "key": {"MCF7 [1]": {"tested_on": "MCF7", "test": "Decrease of BRAC1 mRNA expression in human ER positive MCF7 cells by RT-PCR analysis relative to control", "assay_type": "functional, cell-based"}, "MDA-MB-231 [2]": {"tested_on": "MDA-MB-231", "test": "Reduction of BAX mRNA expression in human ER negative MDA-MB-231 cells by RT-PCR analysis relative to control", "assay_type": "functional, cell-based"}, "MDA-MB-231 [3]": {"tested_on": "MDA-MB-231", "test": "Decrease of CD44 mRNA expression in human ER negative MDA-MB-231 cells by RT-PCR analysis relative to control", "assay_type": "functional, cell-based"}, "MCF7 [4]": {"tested_on": "MCF7", "test": "Increase of CD44 mRNA expression in human ER positive MCF7 cells by RT-PCR analysis relative to control", "assay_type": "functional"}, "MDA-MB-231 [5]": {"tested_on": "MDA-MB-231", "test": "Decrease of BRAC1 mRNA expression in human ER negative MDA-MB-231 cells by RT-PCR analysis relative to control", "assay_type": "functional"}, "MCF7 [6]": {"tested_on": "MCF7", "test": "Reduction of BAX mRNA expression in human ER positive MCF7 cells by RT-PCR analysis relative to control", "assay_type": "functional"}, "MCF7 [7]": {"tested_on": "MCF7", "test": "Decrease of p53 and KRT19 mRNA expression in human ER positive MCF7 cells by RT-PCR analysis relative to control", "assay_type": "functional, cell-based"}, "HepG2": {"tested_on": "HepG2", "test": "Cytotoxicity against human HepG2 cells assessed as growth inhibition at 10^-5 M after 48 hrs by MTT assay", "assay_type": "functional", "conditions": "HepG2, 48 h, read-out: GI"}}, "note": "The source made the active and inactive calls. The calls are words filed in the database; no cut-off is given here."}
{"smiles": "O=C(Cn1nnnc1-c1ccc2c(c1)OCO2)N/N=C/c1ccccc1Cl", "values": [{"measurement": "Activity", "setting": "MCF7 [1]", "result": "Active"}, {"measurement": "Activity", "setting": "MDA-MB-231 [2]", "result": "Active"}, {"measurement": "Activity", "setting": "MDA-MB-231 [3]", "result": "Active"}, {"measurement": "Activity", "setting": "MCF7 [4]", "result": "Active"}, {"measurement": "fold change (FC)", "setting": "MDA-MB-231 [5]", "result": 2}, {"measurement": "fold change (FC)", "setting": "MCF7 [6]", "result": ">2"}, {"measurement": "Activity", "setting": "MCF7 [7]", "result": "Active"}, {"measurement": "inhibition of growth at 10 µM", "setting": "HepG2", "result": 0, "unit": "%"}]}
{"smiles": "O=C(Cn1nnnc1-c1ccc2c(c1)OCO2)N/N=C/c1cccc([N+](=O)[O-])c1", "values": [{"measurement": "Activity", "setting": "MCF7 [1]", "result": "Active"}, {"measurement": "Activity", "setting": "MDA-MB-231 [2]", "result": "Active"}, {"measurement": "Activity", "setting": "MDA-MB-231 [3]", "result": "Active"}, {"measurement": "Activity", "setting": "MCF7 [4]", "result": "Active"}, {"measurement": "fold change (FC)", "setting": "MDA-MB-231 [5]", "result": 2}, {"measurement": "fold change (FC)", "setting": "MCF7 [6]", "result": ">2"}, {"measurement": "Activity", "setting": "MCF7 [7]", "result": "Active"}, {"measurement": "inhibition of growth at 10 µM", "setting": "HepG2", "result": 0, "unit": "%"}]}
{"smiles": "O=C(Cn1nnnc1-c1ccc2c(c1)OCO2)N/N=C/c1ccc([N+](=O)[O-])cc1", "values": [{"measurement": "Activity", "setting": "MCF7 [1]", "result": "Active"}, {"measurement": "Activity", "setting": "MDA-MB-231 [2]", "result": "Active"}, {"measurement": "Activity", "setting": "MDA-MB-231 [3]", "result": "Active"}, {"measurement": "Activity", "setting": "MCF7 [4]", "result": "Active"}, {"measurement": "fold change (FC)", "setting": "MDA-MB-231 [5]", "result": 2}, {"measurement": "fold change (FC)", "setting": "MCF7 [6]", "result": ">2"}, {"measurement": "Activity", "setting": "MCF7 [7]", "result": "Active"}, {"measurement": "inhibition of growth at 10 µM", "setting": "HepG2", "result": 0, "unit": "%"}]}
{"smiles": "O=C(Cn1nnnc1-c1ccc2c(c1)OCO2)N/N=C/c1ccc(Cl)cc1", "values": [{"measurement": "inhibition of growth at 10 µM", "setting": "HepG2", "result": 0, "unit": "%"}]}
{"smiles": "O=C(Cn1nnnc1-c1ccc2c(c1)OCO2)N/N=C/c1ccccc1[N+](=O)[O-]", "values": [{"measurement": "Activity", "setting": "MCF7 [1]", "result": "Active"}, {"measurement": "Activity", "setting": "MDA-MB-231 [2]", "result": "Active"}, {"measurement": "Activity", "setting": "MDA-MB-231 [3]", "result": "Active"}, {"measurement": "fold change (FC)", "setting": "MCF7 [4]", "result": 2}, {"measurement": "fold change (FC)", "setting": "MDA-MB-231 [5]", "result": 2}, {"measurement": "fold change (FC)", "setting": "MCF7 [6]", "result": ">2"}, {"measurement": "Activity", "setting": "MCF7 [7]", "result": "Active"}, {"measurement": "inhibition of growth at 10 µM", "setting": "HepG2", "result": 0, "unit": "%"}]}
{"smiles": "CCc1ccc(/C=N/NC(=O)Cn2nnnc2-c2ccc3c(c2)OCO3)cc1", "values": [{"measurement": "inhibition of growth at 10 µM", "setting": "HepG2", "result": 0, "unit": "%"}]}
{"smiles": "O=C(Cn1nnnc1-c1ccc2c(c1)OCO2)N/N=C/c1cccs1", "values": [{"measurement": "inhibition of growth at 10 µM", "setting": "HepG2", "result": 0, "unit": "%"}]}
{"smiles": "COc1ccc(/C=N/NC(=O)Cn2nnnc2-c2ccc3c(c2)OCO3)c(OC)c1", "values": [{"measurement": "Activity", "setting": "MCF7 [1]", "result": "Active"}, {"measurement": "Activity", "setting": "MDA-MB-231 [2]", "result": "Active"}, {"measurement": "Activity", "setting": "MDA-MB-231 [3]", "result": "Active"}, {"measurement": "fold change (FC)", "setting": "MCF7 [4]", "result": 2}, {"measurement": "fold change (FC)", "setting": "MDA-MB-231 [5]", "result": 2}, {"measurement": "fold change (FC)", "setting": "MCF7 [6]", "result": ">2"}, {"measurement": "Activity", "setting": "MCF7 [7]", "result": "Active"}, {"measurement": "inhibition of growth at 10 µM", "setting": "HepG2", "result": 0, "unit": "%"}]}
{"smiles": "COc1ccc(/C=N/NC(=O)Cn2nnnc2-c2ccc3c(c2)OCO3)cc1", "values": [{"measurement": "inhibition of growth at 10 µM", "setting": "HepG2", "result": 0, "unit": "%"}]}
{"smiles": "O=C(Cn1nnnc1-c1ccc2c(c1)OCO2)N/N=C/c1ccccc1", "values": [{"measurement": "inhibition of growth at 10 µM", "setting": "HepG2", "result": 0, "unit": "%"}]}
{"smiles": "Cc1ccc(/C=N/NC(=O)Cn2nnnc2-c2ccc3c(c2)OCO3)cc1", "values": [{"measurement": "inhibition of growth at 10 µM", "setting": "HepG2", "result": 0, "unit": "%"}]}
{"smiles": "CCOc1ccccc1/C=N/NC(=O)Cn1nnnc1-c1ccc2c(c1)OCO2", "values": [{"measurement": "inhibition of growth at 10 µM", "setting": "HepG2", "result": 0, "unit": "%"}]}
{"smiles": "CCOc1ccc(/C=N/NC(=O)Cn2nnnc2-c2ccc3c(c2)OCO3)cc1", "values": [{"measurement": "inhibition of growth at 10 µM", "setting": "HepG2", "result": 0, "unit": "%"}]}
{"smiles": "O=C(Cn1nnnc1-c1ccc2c(c1)OCO2)N/N=C/c1ccco1", "values": [{"measurement": "inhibition of growth at 10 µM", "setting": "HepG2", "result": 0, "unit": "%"}]}
